Data from PubChem BioAssay (NCI).
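The concentration for 50% growth inhibition is given as GI50. TGI: total growth inhibition.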

Experiments:
Assay in all cases: NCI-60 cell line screen, 384-well format
HT29 colon = tested on: HT29 colon
MDA-MB-468 breast = tested on: MDA-MB-468 breast
HCT-15 colon = tested on: HCT-15 colon
HOP-92 NSCLC = tested on: HOP-92 NSCLC
T-47D breast = tested on: T-47D breast
MDA-MB-435 melanoma = tested on: MDA-MB-435 melanoma
HOP-62 NSCLC = tested on: HOP-62 NSCLC
UACC-257 melanoma = tested on: UACC-257 melanoma
DU-145 prostate = tested on: DU-145 prostate
TK-10 renal = tested on: TK-10 renal
SF-539 CNS = tested on: SF-539 CNS
SK-MEL-2 melanoma = tested on: SK-MEL-2 melanoma
ACHN renal = tested on: ACHN renal
MDA-MB-231 breast = tested on: MDA-MB-231 breast
NCI-H322M lung = tested on: NCI-H322M lung
SF-268 CNS = tested on: SF-268 CNS
UACC-62 melanoma = tested on: UACC-62 melanoma
U251 glioblastoma = tested on: U251 glioblastoma
OVCAR-8 ovarian = tested on: OVCAR-8 ovarian
PC-3 prostate = tested on: PC-3 prostate
HS 578T breast = tested on: HS 578T breast
SF-295 CNS = tested on: SF-295 CNS
OVCAR-4 ovarian = tested on: OVCAR-4 ovarian
SK-OV-3 ovarian = tested on: SK-OV-3 ovarian
KM12 colon = tested on: KM12 colon
NCI-H522 lung = tested on: NCI-H522 lung
COLO 205 colon = tested on: COLO 205 colon
RXF 393 renal = tested on: RXF 393 renal
HCT-116 colon = tested on: HCT-116 colon
A549 NSCLC = tested on: A549 NSCLC
UO-31 renal = tested on: UO-31 renal
SK-MEL-5 melanoma = tested on: SK-MEL-5 melanoma
SK-MEL-28 melanoma = tested on: SK-MEL-28 melanoma
786-0 renal = tested on: 786-0 renal
EKVX NSCLC = tested on: EKVX NSCLC
NCI-H23 lung = tested on: NCI-H23 lung
SW-620 colon = tested on: SW-620 colon
CAKI-1 renal = tested on: CAKI-1 renal
SR leukemia = tested on: SR leukemia
SN12C renal = tested on: SN12C renal
IGROV1 ovarian = tested on: IGROV1 ovarian
MCF7 breast = tested on: MCF7 breast
SNB-75 CNS = tested on: SNB-75 CNS
OVCAR-5 ovarian = tested on: OVCAR-5 ovarian
K-562 leukemia = tested on: K-562 leukemia
MALME-3M melanoma = tested on: MALME-3M melanoma
MOLT-4 leukemia = tested on: MOLT-4 leukemia
HL-60(TB) leukemia = tested on: HL-60(TB) leukemia
SNB-19 CNS = tested on: SNB-19 CNS
A498 renal = tested on: A498 renal
BT-549 breast = tested on: BT-549 breast
NCI-H460 NSCLC = tested on: NCI-H460 NSCLC
NCI-H226 lung = tested on: NCI-H226 lung
OVCAR-3 ovarian = tested on: OVCAR-3 ovarian

## CC[C@@H]1C(=O)N(C)c2cnc(Nc3ccc(C(=O)NC4CCC(N5CCN(CC6CC6)CC5)CC4)cc3OC)nc2N1C(C)C (stereo partly drawn)
HT29 colon
  GI50: < 10 nM
  TGI: 11.1 nM
MDA-MB-468 breast
  GI50: < 10 nM
  TGI: < 10 nM
HCT-15 colon
  GI50: 35.8 nM
  TGI: 549 nM
HOP-92 NSCLC
  GI50: 96.9 nM
  TGI: 1700 nM
T-47D breast
  GI50: 191 nM
  TGI: 897 nM
MDA-MB-435 melanoma
  GI50: < 10 nM
  TGI: 13.7 nM
HOP-62 NSCLC
  GI50: 23.3 nM
  TGI: 1160 nM
UACC-257 melanoma
  GI50: 1160 nM
  TGI: 2390 nM
DU-145 prostate
  GI50: 16.6 nM
  TGI: 1200 nM
TK-10 renal
  GI50: 66.6 nM
  TGI: 1390 nM
SF-539 CNS
  GI50: 30.5 nM
  TGI: 159 nM
SK-MEL-2 melanoma
  GI50: < 10 nM
  TGI: 26.7 nM
ACHN renal
  GI50: 89.2 nM
  TGI: 1660 nM
MDA-MB-231 breast
  GI50: 42.4 nM
  TGI: 1790 nM
NCI-H322M lung
  GI50: 66 nM
  TGI: 1100 nM
SF-268 CNS
  GI50: 32.1 nM
  TGI: 1310 nM
UACC-62 melanoma
  GI50: 27.9 nM
  TGI: 1530 nM
U251 glioblastoma
  GI50: 40.8 nM
  TGI: 1420 nM
OVCAR-8 ovarian
  GI50: 18.1 nM
  TGI: 38.5 nM
PC-3 prostate
  GI50: 53.4 nM
  TGI: 2630 nM
HS 578T breast
  GI50: 19.5 nM
  TGI: 49.7 nM
SF-295 CNS
  GI50: 31.4 nM
  TGI: 1510 nM
OVCAR-4 ovarian
  GI50: 222 nM
  TGI: 1120 nM
SK-OV-3 ovarian
  GI50: 21.3 nM
  TGI: 176 nM
KM12 colon
  GI50: 10.3 nM
  TGI: 50.7 nM
NCI-H522 lung
  GI50: < 10 nM
  TGI: < 10 nM
COLO 205 colon
  GI50: < 10 nM
  TGI: 1310 nM
RXF 393 renal
  GI50: < 10 nM
  TGI: 10.6 nM
HCT-116 colon
  GI50: < 10 nM
  TGI: 1030 nM
A549 NSCLC
  GI50: 41.6 nM
  TGI: 1040 nM
UO-31 renal
  GI50: 589 nM
  TGI: 1870 nM
SK-MEL-5 melanoma
  GI50: 14.7 nM
  TGI: 127 nM
SK-MEL-28 melanoma
  GI50: 87.6 nM
  TGI: 2120 nM
786-0 renal
  GI50: 90.7 nM
  TGI: 1150 nM
EKVX NSCLC
  GI50: 37.1 nM
  TGI: 235 nM
NCI-H23 lung
  GI50: < 10 nM
  TGI: 28.2 nM
SW-620 colon
  GI50: < 10 nM
  TGI: 107 nM
CAKI-1 renal
  GI50: 100 nM
  TGI: 1540 nM
SR leukemia
  GI50: < 10 nM
  TGI: < 10 nM
SN12C renal
  GI50: 232 nM
  TGI: 3340 nM
IGROV1 ovarian
  GI50: 44.2 nM
  TGI: 1170 nM
MCF7 breast
  GI50: 11 nM
  TGI: 1270 nM
SNB-75 CNS
  GI50: 71.4 nM
  TGI: 2100 nM
OVCAR-5 ovarian
  GI50: 38.9 nM
  TGI: 1710 nM
K-562 leukemia
  GI50: < 10 nM
  TGI: 23.8 nM
MALME-3M melanoma
  GI50: 44.6 nM
  TGI: 1760 nM
MOLT-4 leukemia
  GI50: < 10 nM
  TGI: < 10 nM
HL-60(TB) leukemia
  GI50: < 10 nM
  TGI: < 10 nM
SNB-19 CNS
  GI50: 96.8 nM
  TGI: 2970 nM
A498 renal
  GI50: 69.6 nM
  TGI: 1260 nM
BT-549 breast
  GI50: 19.6 nM
  TGI: 159 nM
NCI-H460 NSCLC
  GI50: < 10 nM
  TGI: 1280 nM
NCI-H226 lung
  GI50: 151 nM
  TGI: 1750 nM
OVCAR-3 ovarian
  GI50: < 10 nM
  TGI: 145 nM
